Experimental data: ChEMBL document CHEMBL1149799, “Bioactive peroxides as potential therapeutic agents” (Eur J Med Chem, 2008)
In brackets after ≈: the same amount, converted by molar mass.

Tests used:
[1] = tested on: P388; test: Cytotoxicity against mouse P388 cells at 0.5 ug/mL; format: functional
[2] = tested on: HCT-8; test: Cytotoxicity against human HCT8 cells at 10 ug/mL; format: functional
[3] = Cytotoxicity against mouse B16-F1cells; format: functional, cell-based; conditions: B16-F1
[4] = tested on: P388; test: Cytotoxicity against mouse P388 cells; format: functional, cell-based; conditions: Mus musculus, P388
[5] = tested on: A549; test: Cytotoxicity against human A549 cells; format: functional, cell-based; conditions: Homo sapiens, A549
[6] = tested on: Human alphaherpesvirus 1; test: Antiviral activity against herpes simplex virus type-1; format: functional, organism-based
[7] = tested on: Vesicular stomatitis virus; test: Antiviral activity against Vesicular stomatitis virus; format: functional, organism-based
[8] = tested on: HT-29; test: Cytotoxicity against human HT29 cells; format: functional, cell-based; conditions: Homo sapiens, HT-29
[9] = Cytotoxicity against human H116 cells; format: functional, cell-based
[10] = tested on: PSN1; test: Cytotoxicity against human PSN1 cells; format: functional, cell-based
[11] = tested on: T98G; test: Cytotoxicity against human T98G cells; format: functional, cell-based
[12] = tested on: SK-BR-3; test: Cytotoxicity against human SKBR3 cells; format: functional, cell-based
[13] = Cytotoxicity against human MAXF401NL cells; format: functional, cell-based; conditions: MAXF 401NL
[14] = Cytotoxicity against human GXF251L cells; format: functional, cell-based; conditions: GXF 251L
[15] = Cytotoxicity against human UXF1138L cells; format: functional, cell-based; conditions: UXF 1138L
[16] = Cytotoxicity against human LXF529L cells; format: functional, cell-based; conditions: LXF 529L
[17] = Cytotoxicity against human RXF486L cells; format: functional, cell-based; conditions: RXF 486L
[18] = Cytotoxicity against human MAXF642NL cells; format: functional, cell-based
[19] = tested on: KB; test: Cytotoxicity against human KB cells; format: functional, cell-based; conditions: Homo sapiens
[20] = tested on: L1210; test: Cytotoxicity against mouse L1210 cells; format: functional, cell-based; conditions: Mus musculus, L1210
[21] = tested on: LoVo; test: Cytotoxicity against human LoVo cells; format: functional
[22] = tested on: EL4; test: Cytotoxicity against […] cells; format: functional, cell-based; conditions: Mus musculus

`CCCCCCCCCCCCCCC[C@]1(C)C[C@](C)(CC(=O)O)OO1` showed an inhibition at 0.5 µg/mL [1] of 90% and an inhibition at 10 µg/mL [2] of 90%.
In the case of `COC(=O)C[C@H]1OO[C@](C)(C/C(C)=C/C(C)=C/Cc2ccccc2)C[C@H]1C` [CAPUCINOATE B], the IC50 [3] is reported as 0.012 µg/mL (≈ 0.0322 µM).
With `C[C@H](C(=O)O)[C@@H]1CC[C@](C)(CC[C@]2(C)[C@H](C)CC[C@@]3(C)C(C)(C)CCC[C@]32O)OO1` [MYCAPEROXIDE A] the IC50 [4] was 0.5 µg/mL (≈ 1.18 µM), the IC50 [5] was 0.5 µg/mL (≈ 1.18 µM) and the IC50 [6] was 0.25 µg/mL (≈ 0.589 µM). For the same compound, the IC50 [7] was 0.25 µg/mL (≈ 0.589 µM) and the IC50 [8] was 0.5 µg/mL (≈ 1.18 µM).
With `CC(C)(OO)C1=C[C@@]23CCC4C(C)(C)CCC[C@]4(C)[C@H]2C[C@H]1OO3` (stereo not given in full) the IC50 [9] was 2.5 µg/mL (≈ 7.43 µM), the IC50 [10] was 5 µg/mL (≈ 14.9 µM) and the IC50 [11] was over 5 µg/mL. For the same compound, the IC50 [5] was 5 µg/mL (≈ 14.9 µM) and the IC50 [12] was over 5 µg/mL.
For `CCCCCC[C@@]1(CC)C=C(CC)[C@@H](CC(=O)OC)OO1`, the IC50 [13] was 14.9 µg/mL (≈ 49.9 µM), the IC50 [14] was 8.3 µg/mL (≈ 27.8 µM) and the IC50 [15] was 14.1 µg/mL (≈ 47.2 µM). It also gave an IC50 [16] of 7.7 µg/mL (≈ 25.8 µM), an IC50 [17] of 14.4 µg/mL (≈ 48.3 µM) and an IC50 [18] of 7.2 µg/mL (≈ 24.1 µM).
Work on `CC(CCCC/C=C/CC/C=C\c1ccccc1)C[C@]1(C)C[C@](C)(CC(=O)O)OO1` (stereo not given in full) [EPIPLAKINIC ACID C] yielded an MIC [19] of 0.01 µg/mL (≈ 0.0241 µM), an IC50 [20] of 0.052 µg/mL (≈ 0.125 µM) and an MIC [21] of 1 µg/mL (≈ 2.41 µM). For the same compound, the IC50 [4] was 2.5 µg/mL (≈ 6.03 µM), the IC50 [5] was 2 µg/mL (≈ 4.82 µM) and the IC50 [22] was 4.6 µg/mL (≈ 11.1 µM).
